Measured values reported in US9114158B2, “Compounds and methods of use in ablative radiotherapy” (The Johns Hopkins University, priority 2011, dated 2015).

Assays:
DDX3 = target: T1, DDX3 (Homo sapiens, UniProt O00571); test: DDX3 helicase unwinding assay with duplex oligos; format: biochemical; details: 100 μM RK-33, over a period of 80 minutes
T1 construct: made in house; host or cells: pET system (Novagen); E. coli is my own knowledge of the pET system
Description: FIG. 4 is a chart showing RK-33 inhibits helicase activity of DDX3.
Generating small molecular inhibitors of DDX3 function. As loss of DDX3 function abrogated colony forming abilities along with increased expression in lung carcinoma samples, a search was initiated to identify molecules that could target a functional substrate binding site of DDX3 protein. Initial work generated a fused diimidazodiazepine ring molecule (RK-33) to target RNA helicase. To confirm the functional activity of RK-33 on DDX3, an in vitro assay was carried out to determine the effects of RK-33 on helicase activity. DDX3 protein was synthesized using the pET system from Novagen. Following DDX3 purification, the unwinding assays were performed using duplex oligos, purified DDX3 and RK-33. Quantification was done by evaluating the pixel density of the native duplex oligos and the unwound oligos.

A549 cells = test: Combination of RK-33 and radiation in A549 cells, Chou-Talalay analysis; format: cell-based; details: 4 and 6 μM RK-33 with 2 and 7 gray of radiation
Protocol: FIG. 8 is a set of bar graphs depicting the effect of radiation and RK-33 on A549 cells. […] Experiments were performed in triplicate.
Clonogenic assays. About 1×10^5 A549 cells were treated with RK-33 (1-6 μM) and to increasing dose of IR (1-20 Gy). After 24 hours, 500 cells from each combination treatment will be plated into a 6-well plate. Following incubation for 1-3 weeks, colonies were fixed in glutaraldehyde (6.0% v/v), stained with crystal violet (0.5% w/v) and counted using a stereomicroscope. Clusters of >50 cells (i.e., six cell doubling times) were scored as colonies. The amount of radiosensitization by RK-33 was determined using the Chou-Talalay equation to determine the combination index (CI). A CI 0.9-1.1 was indicative of additivity while a CI <0.9 indicated synergism. The survival curves, S, were fit to the linear-quadratic model S=exp(−αD-βD2) to determine classical parameters of radiation sensitivity.
Combinatorial effect of RK-33 and radiation in lung cancer cell line, A549. Given the current treatment protocol for lung cancer patients, which includes chemotherapy and radiation, the cell killing abilities of RK-33 was evaluated in combination with radiation in a chemotherapy/radiation resistant lung cancer cell line, A549 (FIG. 7). […] For this experiment, RK-33 below the IC50 value was used to determine if there was any additive or synergistic effect. […]

[1] = Biodistribution of RK-33 in mice by LC/MS/MS; format: in vivo; details: I.P. single dose of 20 mg/kg; 30 minutes, 60 minutes and 24 hours
Description: FIG. 9 is a set of curves illustrating the biodistribution of RK-33 in mice at different time intervals using an LC/MS/MS method. A total of five mice per time point were used for this study.
Analysis of the toxicity of RK-33 in SCID mice. […] Subsequently, we carried out pharmacokinetics in multiple tissue compartments. For this a LC/MS/MS method was developed for determination of RK-33 in mouse plasma (FIG. 9-inset). Sample preparation involved acetonitrile precipitation and separation of RK-33 and the internal standard, temazepam, was achieved on a Waters Xterra column. […] The animals were injected I.P. (single dose of 20 mg/kg with five animals per arm) and the tissue harvested at different time intervals (30 minutes, 60 minutes and 24 hours) and analyzed.

H23 = test: MTS assay, lung cancer cell line H23; format: cell-based
Protocol: (§1) FIG. 5 is a plot showing the effect of RK-33 on two lung cancer cell lines. Lung cancer cell lines were incubated with different concentrations of RK-33. At day 3, MTS assays were performed to determine the percentage of metabolically active cells. The experiments were repeated in triplicate. The IC50 values for H23 and A549 are 3.5 and 5 μM respectively.
To study the effects of RK-33 on cell growth and proliferation, lung cancer cell lines (H23 and A549) were used for the initial studies. […] To the best of our knowledge, this is the first data set of evaluating the efficacy of a small molecule inhibitor of DDX3 to kill lung cancer cells.

lung tumors in CRT mice = test: RK-33 and radiation in CRT autochthonous lung tumor mice, microCT tumor volume; format: in vivo
Description: FIG. 11 is a bar graph showing the chemosensitization of RK-33 with radiation to reduce lung tumors in CRT mice. Following RK-33 and radiation treatment, the animals were imaged using microCT (data not shown). The bar graph depicts the reduction of lung tumor volume in n=8 animals per group. The tumor volumes were quantified from the CBCT data set using the image and volume contouring utility of the Pinnacle3 Radiation Therapy Planning software v.8.1y (Philips Inc., Madison, Wis.) used in the clinic for human patients. Each CBCT data set contains full 3D volumetric data for the tumor burden estimation.
Generating the CRT mice and drug treatment. As shown in the results, the functional utility of CRT mice was validated. CRT mice are generated from combinations of bi-transgenic mice; e.g., CT X CR. CRT mice were activated shortly after weaning, four-five weeks old, by doxycycline administered in their drinking water (up to 2 mg/ml) in a total volume of 350 ml to simultaneously activate both Twist1 and KrasG12D transgenes. Fresh doxycycline containing water was administered weekly. Ten weeks post transgene induction, the mice were imaged by microCT to determine tumor load. Induction of the transgenes and imaging the tumor load by microCT were continuous (weekly) till the end of the experiment. Following induction and establishment of lung tumors, RK-33 (1 mM equivalent to 40 mg/Kg) was injected intraperitoneally in combination with radiation at schedules described in the table below. The number of animals used in each group was 25.
MicroCT procedures. Presently a small animal radiation research platform for radiation treatment of animals was developed. […]
Thoracic image-guided irradiation. […] Fifteen Gy radiation calculated at the isocenter was delivered using a single posterior field. […]
Endpoints for in vivo experiments. […] Animals following treatment are monitored daily by animal care staff and 3×/week by investigators for signs of mortality and morbidity. […]

[2] = Toxicity of RK-33 in SCID mice, pathological examination after necropsy; format: in vivo
A549 = test: MTS assay, lung cancer cell line A549; format: cell-based
Protocol: as §1, with “respectively. […] Experiments were performed in triplicate. To study the effects of RK-33 on cell growth and proliferation, lung cancer cell lines (H23 and A549) were used for the initial studies. […] To the best of our knowledge, this is the first data set of evaluating the efficacy of a small molecule inhibitor of DDX3 to kill lung cancer cells.” for “respectively.”

[3] = test system: Cells engineered to express a hypoxia induced red fluorescent protein (tdTomato); test: Cell death under hypoxic conditions (CoCl2 hypoxia mimetic); format: cell-based; details: CoCl2 24 hours, then RK-33 72 hours
Protocol: Cells engineered to express a hypoxia induced red fluorescent protein (tdTomato) were incubated with CoCl2 (hypoxia mimetic compound) for 24 hours, following which RK-33 was added and incubated for 72 hours. Photomicrographs were taken at 20×. Experiments were repeated twice. Effect of hypoxia on the functional activity of RK-33 to induce cell death. During solid tumor biogenesis, regions of hypoxia develop within the tumor due to inadequate and poorly formed vasculature. […] In addition, some have posited that tumor hypoxia is a major limiting factor of the curability by SABR at lower radiation dose. […] To evaluate efficacy of RK-33 to induce cell death under hypoxic conditions, cells were incubated with CoCl2 (hypoxia mimetic compound) for 24 hours, following which RK-33 was added and incubated for 72 hours.

T1 sequence (O00571 whole entry): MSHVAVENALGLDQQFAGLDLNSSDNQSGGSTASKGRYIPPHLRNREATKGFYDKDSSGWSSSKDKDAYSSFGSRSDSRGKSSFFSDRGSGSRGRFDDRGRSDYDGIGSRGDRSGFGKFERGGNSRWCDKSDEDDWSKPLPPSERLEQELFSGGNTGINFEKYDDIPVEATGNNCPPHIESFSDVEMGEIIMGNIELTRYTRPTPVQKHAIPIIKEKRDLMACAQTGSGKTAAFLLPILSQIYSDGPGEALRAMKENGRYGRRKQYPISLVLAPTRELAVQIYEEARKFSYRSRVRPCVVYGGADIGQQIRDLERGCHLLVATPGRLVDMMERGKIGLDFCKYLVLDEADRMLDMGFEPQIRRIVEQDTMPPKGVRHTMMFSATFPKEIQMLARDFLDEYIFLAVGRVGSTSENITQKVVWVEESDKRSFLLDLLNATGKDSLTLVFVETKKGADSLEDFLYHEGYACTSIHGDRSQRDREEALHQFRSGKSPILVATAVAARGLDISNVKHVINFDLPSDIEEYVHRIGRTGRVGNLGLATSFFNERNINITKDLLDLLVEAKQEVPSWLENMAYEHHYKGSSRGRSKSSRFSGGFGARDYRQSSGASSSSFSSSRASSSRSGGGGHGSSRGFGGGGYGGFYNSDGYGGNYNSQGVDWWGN

SMILES	reduction of unwinding of the duplex oligos (DDX3)	combination effect with radiation on cell death (Chou-Talalay) (A549 cells)	brain exposures [1]	target tissue concentrations [1]	effect on cell growth and proliferation (H23; H23, 8 μM RK-33)	IC50 (H23; Homo sapiens, NCI-H23, 72 h, H23, MTS at day 3) [µM]	tumor volume reduction, RK-33 combined with conventional fractionated radiation (lung tumors in CRT mice; 3 Gy x10)	tumor response, single agent (lung tumors in CRT mice; RK-33 1 mM i.p. 3 times a week alone, microCT)	tumor response, RK-33 combined with SABR (lung tumors in CRT mice; RK-33 1 mM i.p. 3 times a week, 1 week before and 1 week after 15 Gy whole thorax SABR, microCT and H&E)	pathological examination of all tissues following necropsy [2]	sensitivity of A549 cells in MTS assay (A549)	effect on cell growth and proliferation (A549; A549, 8 μM RK-33)	IC50 (A549; Homo sapiens, 72 h, A549, MTS at day 3) [µM]	activity to induce cell death under hypoxic conditions [3]
COc1ccc(Cn2c3ncnc4c(ncn4Cc4ccc(OC)cc4)c-3nc2=O)cc1 [RK-33]	at least 60%	significant synergistic effect	well managed	well above effective killing concentrations	efficiently ablate	3.5	no synergy	stasis or perhaps slight regression	dramatic tumor regression	no tissue damage	sensitive	efficiently ablate	5	retain its activity both under normoxic and hypoxic conditions
N.N.O=C([O-])C1(C(=O)[O-])CCC1.[Pt+2] [carboplatin, reference compound]	–	–	–	–	–	–	–	–	–	–	resistant	–	–	–
